From patent US12173088B2, “Anti-microbial peptides” (priority 2018, dated 2024)
Values after ≈ are worked out from the molar mass of the structure shown. Read-outs that look alike come from different tables or passages of the source. Peptide text beside a SMILES is read from it.

Assays:
E. coli ATCC 25922 = assay type: cell-based, Escherichia coli
Method in brief: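 Peptides, serially diluted two-fold, were incubated overnight at 37 °C with E. coli ATCC 25922 from log-phase cultures adjusted to OD600 0.001. Turbidity at 630 nm served as the read-out in this broth microdilution format.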

Hemolytic assay = assay type: cell-based, human; conditions: human, human red blood cells, 2% (v/v)
Method in brief: (§1)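 HL50 marks the peptide level lysing half of a 2% (v/v) suspension of washed human erythrocytes after 1 h at 37 °C. Released hemoglobin measured at 545 nm, scaled between PBS (0%) and Triton X-100 (2% or 1%; 100%). Selectivity index computed as HL50 over MIC.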

S. aureus USA300 = experiment: microbe, parasite or virus in culture; assay type: cell-based, Staphylococcus aureus
Method in brief: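 Broth microdilution: log-phase cultures in tryptic soy broth diluted to OD600 0.001, exposed to two-fold diluted peptides at 37° C overnight, growth read at 630 nm. Medium effects on S. aureus USA300 tested with up to 200 mM NaCl, 2 mM CaCl2, 5-10% human serum, mouse plasma, fluids or tissue homogenate supernatants.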

P. aeruginosa PAO1 = assay type: cell-based, Pseudomonas aeruginosa
Method in brief: (§2)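 Broth microdilution in tryptic soy broth: log-phase cultures (OD600 ≈0.5) diluted to OD600 0.001, given two-fold peptide dilutions, incubated overnight at 37° C. Growth read at 630 nm.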

[1] = test system: human red blood cells (hRBCs); experiment: Hemolytic assay; assay type: cell-based
Method in brief: as §1

K. pneumoniae ATCC 13883 = assay type: cell-based, Klebsiella pneumoniae; conditions: ATCC 13883
Method in brief: as §2

[2] = Table 4, quantitated based on weight

| SMILES | MIC EC (E. coli ATCC 25922) (E. coli ATCC 25922; ATCC 25922) [µM] | HC50 at 1 h (Hemolytic assay) [µM] | MIC SA (S. aureus USA300) (S. aureus USA300; USA300) [µM] | MIC PA (P. aeruginosa PAO1) (P. aeruginosa PAO1; PAO1) [µM] | further results |
| --- | --- | --- | --- | --- | --- |
| CC(C)C[C@H](NC(=O)[C@H](CC(C)C)NC(=O)[C@H](CCCCN)NC(=O)CNC(=O)[C@H](CC(C)C)NC(=O)[C@H](CC(C)C)NC(=O)[C@H](CO)NC(=O)[C@H](CC(C)C)NC(=O)[C@H](CC(C)C)NC(=O)[C@H](CC(C)C)NC(=O)[C@H](CO)NC(=O)[C@H](CC(C)C)NC(=O)CN)C(N)=O [DFT502, GLSLLLSLLGKLL] (H-GLSLLLSLLGKLL-NH2; N-terminus and C-terminus assumed) | >25 | 3.1 | 1.6 (≈ 2.14 µg/mL) | >25 |  |
| CC(C)C[C@H](NC(=O)[C@H](CCCCN)NC(=O)CNC(=O)[C@H](CC(C)C)NC(=O)[C@H](CC(C)C)NC(=O)[C@H](CC(C)C)NC(=O)[C@H](CO)NC(=O)[C@H](CC(C)C)NC(=O)[C@H](CC(C)C)NC(=O)[C@H](CC(C)C)NC(=O)[C@H](CO)NC(=O)[C@H](CC(C)C)NC(=O)CN)C(N)=O [DFT504, GLSLLLSLLLGKL] (H-GLSLLLSLLLGKL-NH2; N-terminus and C-terminus assumed) | >25 | 8 | 6.2 (≈ 8.3 µg/mL) | >25 |  |
| CC(C)C[C@H](NC(=O)[C@H](CC(C)C)NC(=O)[C@H](CCCCN)NC(=O)CNC(=O)[C@H](CC(C)C)NC(=O)[C@H](CC(C)C)NC(=O)[C@H](CC(C)C)NC(=O)[C@H](CC(C)C)NC(=O)[C@H](CO)NC(=O)[C@H](CO)NC(=O)[C@H](CC(C)C)NC(=O)[C@H](CC(C)C)NC(=O)CN)C(N)=O [DFT505, GLLSSLLLLGKLL] (H-GLLSSLLLLGKLL-NH2; N-terminus and C-terminus assumed) | >25 | 20 | 3.1 (≈ 4.15 µg/mL) | >25 |  |
| CC(C)C[C@H](NC(=O)[C@H](CC(C)C)NC(=O)CNC(=O)[C@H](CC(C)C)NC(=O)[C@H](CC(C)C)NC(=O)[C@H](CO)NC(=O)[C@H](CC(C)C)NC(=O)[C@H](CC(C)C)NC(=O)[C@H](CO)NC(=O)[C@H](CC(C)C)NC(=O)[C@H](CC(C)C)NC(=O)[C@H](CCCCN)NC(=O)CN)C(N)=O [DFT527, GKLLSLLSLLGLL] (H-GKLLSLLSLLGLL-NH2; N-terminus and C-terminus assumed) | >25 | 20 | 3.1 (≈ 4.15 µg/mL) | >25 |  |
| CC(C)C[C@H](NC(=O)[C@H](C)NC(=O)[C@H](CCCCN)NC(=O)CNC(=O)[C@H](CC(C)C)NC(=O)[C@H](C)NC(=O)[C@H](CCCCN)NC(=O)[C@H](CC(C)C)NC(=O)[C@H](C)NC(=O)[C@H](CO)NC(=O)[C@H](CC(C)C)NC(=O)[C@H](C)NC(=O)CN)C(N)=O [DFT530, GALSALKALGKAL] (H-GALSALKALGKAL-NH2; N-terminus assumed) |  |  |  |  | MIC E. coli ATCC 25922 (E. coli ATCC 25922; ATCC 25922): >25 µM; HL50 [1]: >100 µM; MIC S. aureus USA 300 (S. aureus USA300; USA300): >25 µM; Antimicrobial activity (S. aureus USA300; at 25 μM): inactive; MIC K. pneumoniae (K. pneumoniae ATCC 13883): >25 µM; MIC P. aeruginosa PAO1 (P. aeruginosa PAO1; PAO1): >25 µM |
| CC(C)C[C@H](NC(=O)[C@H](CC(C)C)NC(=O)[C@H](CCCCN)NC(=O)[C@H](CC(C)C)NC(=O)CNC(=O)[C@H](CC(C)C)NC(=O)[C@H](CO)NC(=O)[C@H](CC(C)C)NC(=O)[C@H](CC(C)C)NC(=O)[C@H](CO)NC(=O)[C@H](CC(C)C)NC(=O)[C@H](CC(C)C)NC(=O)CN)C(N)=O [DFT531, GLLSLLSLGLKLL] (H-GLLSLLSLGLKLL-NH2; N-terminus and C-terminus assumed) |  |  |  |  | MIC EC (E. coli ATCC 25922) (E. coli ATCC 25922; [2]): >25 µM; HC50 at 1 h (Hemolytic assay; Table 4, quantitated based on weight, read-out: HL50, peptide concentration for 50% hemolysis): 7 µM; MIC SA (S. aureus USA300) (S. aureus USA300; [2]): 0.8 µM (≈ 1.07 µg/mL); MIC PA (P. aeruginosa PAO1) (P. aeruginosa PAO1; [2]): >25 µM |
